The data set deals with human patients with bilateral knee osteoarthritis. Kind of data set: Procedure pain (NPRS) due to intraarticular trans-capsaicin, shortened cooling protocol, Breg pad vs Elasto-Gel wrap (Example 9). In kind it is in vivo. As to conditions: four patients (Example 9), 1 mg intraarticular. Here is the method: Human patients experiencing osteoarthritic knee joint pain were subjected to two different protocols for intraarticular administration of trans-capsaicin. Temporary pain expected due to administration of capsaicin was analyzed, along with the intraarticular temperature of the knee joint and the temperature of the patient's skin in the area to be cooled.
(§1) One of the protocols utilized a Breg Knee WrapOn Polar Pad (as illustrated in FIG. 1) that utilizes circulating ice-water to achieve cooling, where the pad is placed on skin surrounding the knee in order to cool the knee joint. The other protocol utilized an Elasto-Gel All Purpose Therapy Wrap measuring 6 inches by 24 inches in size to cool the knee joint. The Elasto-Gel All Purpose Therapy Wrap was removed from a freezer (approximately 0° F.) just prior to use. A temperature probe was placed into the intraarticular space of the patient's knee joint to measure intraarticular temperature of the knee joint. A temperature probe was also placed on the skin in the area to be cooled in order to measure skin temperature in the area to be cooled. […]
as §1, with “by 24 inches, whereby the wrap is placed around the knee joint in order” for “by 24 inches in size”, “joint in order to cool” for “inches in size to cool”, “knee joint. At the discretion of the physician performing the procedure, in order to reduce discomfort for the patient, the protocol authorized the physician to instill a volume of 1-2 cc of 2% w/w lidocaine (without epinephrine) into the skin and subcutaneous tissue of the knee at the site of intra-articular probe insertion. A temperature” for “knee joint. A temperature”
Patients receiving cooling of the knee joint using the Elasto-Gel All Purpose Therapy Wrap were subjected to the following procedure: • Placement of intraarticular temperature probe and skin temperature probe. At the discretion of the physician performing the procedure, in order to reduce discomfort for the patient, the protocol authorized the physician to instill a volume of 1-2 cc of 2% w/w lidocaine (without epinephrine) into the skin and subcutaneous tissue of the knee at the site of intra-articular probe insertion. • Cooling using the designated technique was performed for 30 minutes (+/−2 minutes). • Cooling apparatus was removed from the patient's knee. • Intraarticular injection of lidocaine 2% w/w (without epinephrine) 15 mL solution into the patient's knee joint. • Intraarticular injection of the investigational medicinal product (IMP) was performed to deliver trans-capsaicin in the amount of 1 mg. The trans-capsaicin was injected, using the same needle as the lidocaine 2% w/w (without epinephrine), 3 minutes after the intra-articular injection of lidocaine 2% w/w (without epinephrine). The IMP was provided as a pre-filled syringe containing 2 mL of fluid containing trans-capsaicin at a concentration of 0.5 mg/mL. • Knee joint was flexed and extended five times over 1 minute to ensure appropriate distribution of IMP. • The temperature probe was removed approximately 30 minutes after removal of the cooling apparatus.
Pain due to injection of trans-capsaicin was assessed on a Numerical Pain Rating scale (0-10) for 75 minutes after injection of trans-capsaicin. A verbal NPRS was used to assess procedure pain during the study. […]

From US20250241879A1, “CAPSAICIN SEQUENTIAL DOSING METHOD FOR TREATMENT OF KNEE JOINT PAIN” (priority 2018, published 2025) come the findings set out here.

Consider `COc1cc(CNC(=O)CCCCC=CC(C)C)ccc1O` [trans-capsaicin, N-[(4-hydroxy-3-methoxyphenyl)methyl]-8-methylnon-6-enamide], for which the “Knee Pain (NPRS)” value is, setting by setting: (Ice-Gel Pack (Elasto-Gel wrap), 30 min) 0.0 (+/−0.0); (Ice-Gel Pack (Elasto-Gel wrap), 40 min) 0.0 (+/−0.0); (Ice-Gel Pack (Elasto-Gel wrap), 50 min) 1.5 (+/−2.4); (Ice-Gel Pack (Elasto-Gel wrap), 60 min) 2.8 (+/−3.1); (Ice-Gel Pack (Elasto-Gel wrap), 70 min) 1.0 (+/−0.8); (Ice-Gel Pack (Elasto-Gel wrap), 80 min) 1.8 (+/−2.9). The “Knee Pain (NPRS)” value runs as follows: (Ice-Gel Pack (Elasto-Gel wrap), 90 min) 2.5 (+/−2.9); (Ice-Gel Pack (Elasto-Gel wrap), 100 min) 1.8 (+/−2.9); (Ice-Gel Pack (Elasto-Gel wrap), 110 min) 0.8 (+/−1.5); (Ice-Gel Pack (Elasto-Gel wrap), Baseline) 0.3 (+/−0.5); (Standard Cooling Device (Breg pad), 30 min) 0.0 (+/−0.0); (Standard Cooling Device (Breg pad), 40 min) 0.5 (+/−1.0). Besides, the “Knee Pain (NPRS)” value (Standard Cooling Device (Breg pad), 50 min) is recorded as 3.8 (+/−2.9); the “Knee Pain (NPRS)” value (Standard Cooling Device (Breg pad), 60 min) is 1.8 (+/−2.4); the “Knee Pain (NPRS)” value (Standard Cooling Device (Breg pad), 70 min) is recorded as 1.0 (+/−2.0); the “Knee Pain (NPRS)” value (Standard Cooling Device (Breg pad), 80 min) is reported as 2.0 (+/−4.0); the “Knee Pain (NPRS)” value (Standard Cooling Device (Breg pad), 90 min) is reported as 1.5 (+/−2.4); the “Knee Pain (NPRS)” value (Standard Cooling Device (Breg pad), 100 min) is 0.5 (+/−1.0). For the same compound, the “Knee Pain (NPRS)” value is reported as 2.0 (+/−4.0) (Standard Cooling Device (Breg pad), 110 min) and 0.0 (+/−0.0) (Standard Cooling Device (Breg pad), Baseline).
